The source of these data is patent US20090042906A1, “METHODS FOR TREATING CANCERS ASSOCIATED WITH CONSTITUTIVE EGFR SIGNALING” (Massachusetts Institute of Technology, priority 2007, published 2009).

Data set [1] deals with T1, c-Met receptor (Homo sapiens, UniProt P08581).
T1 construct: the U87MG cell line which expresses low levels of c-Met; endogenous in cells; host or cells: U87MG-derived U87H cells (human glioblastoma)
The data set can be described thus: Immunoblotting of c-Met receptor phosphorylation after kinase inhibitor treatment of U87H cells. As to conditions: 1 h inhibitor dose escalation after 24-h serum starvation, Western blot. Format: cell-based. How it is done: For whole-cell extracts, cells were lysed in lysis buffer (20 mmol/L Tris-HCl, 150 mmol/L NaCl, 1 mmol/L EDTA, 1% Triton X-100, 2.5 mmol/L sodium PPi, 1 mmol/ ? glycerophosphate) containing protease and phosphatase inhibitors after the indicated treatment. Protein samples were separated on either 7.5% or 10% SDS-polyacrylamide gels and transferred onto polyvinylidene difluoride membrane. Blots were developed with supersignal West Femto substrate (Pierce) after incubation with primary and secondary antibodies. […] Cells were then lysed as described above for either immunoblotting or mass spectrometric analysis.

The subject of data set [2] is U87H cells. The data set can be described thus: Cell viability assay (WST-1). Format: cell-based, human. As to conditions: for cell viability, combination with cisplatin: increasing doses of inhibitor with constant 10 μg/ml cisplatin, versus cisplatin only control; for cell viability, single agent: single treatment, 72 h after 24-h serum starvation; for cytotoxicity of combination treatment: 10 μM c-Met inhibitor plus 5 μM AG1478, P<0.001 (SU11274), P<0.0001 (PHA665752); for cell viability, combined dosing with AG1478: c-Met inhibitor dose-response plus constant 5 μM AG1478, 72 h.

In data set [3] the test system is human glioblastoma xenografts expressing EGFRvIII. The settings on record: co-treatment of cisplatin with AG1478; cited from earlier work.
The next data set deals with T2, EGFRvIII receptor (Homo sapiens, UniProt P00533, DELINS30-297G).
T2 construct: expressed in transfected cells; host or cells: U87MG human glioblastoma cells (U87H population), retroviral transduction with pLERNL
In words: Mass spectrometric phosphotyrosine analysis of SU11274 treated U87H cells (EGFRvIII sites). The class given is cell-based. The settings on record: mass spectrometry (data not shown). How it is done: U87MG cells expressing titrated levels of EGFRvIII were maintained in DMEM medium supplemented with 10% FBS. 1.5 million cells per 10 cm plate were washed with PBS and incubated for 24 hours in serum-free media. Cells were lysed with 8 M urea supplemented with 1 mM sodium orthovanadate (Sigma-Aldrich). For each biological replicate, three 10 cm plates were pooled together. The samples were then further processed and labeled with the iTRAQ reagent as previously described (Zhang et al. (2005) Mol Cell Proteom 4:1240-1250). Peptide immunoprecipitation was performed as previously described (Zhang et al. (2005) Mol Cell Proteom 4:1240-1250), with the following exceptions: 10 μg of protein G Plus-agarose beads (Calbiochem) were incubated with 12 μg of anti-phosphotyrosine antibody (pTyr100 (Cell Signaling Technology) in 200 μl of IP buffer (100 mM Tris, 100 mM NaCl, 1% NP-40, pH 7.4) for 8 hr at 4° C. Immobilized metal affinity chromatography (IMAC) was performed as previously described to remove non-specific non-phosphorylated peptides and eluted phosphopeptides were analyzed by ESI LC-MS/MS on a QqT of (QSTAR XL Pro, Applied Biosystems) operated in IDA mode, as previously described (Zhang et al. (2005) Mol Cell Proteom 4:1240-1250).
MS/MS spectra were extracted and searched against human protein database (NCBI) using ProQuant (Applied Biosystems) as recommended by the manufacturer. […]

In data set [4] the target is T1, c-Met receptor. The data set can be described thus: Mass spectrometric phosphotyrosine analysis of SU11274 treated U87H cells (c-Met). Format: cell-based. As to conditions: mass spectrometry.
For data set [5], the system named is U87H cells. In words: Apoptosis assay (caspase 3/7 activity, Apo-ONE). Format: cell-based, human. How it is done: 10,000 cells were seeded per well in a 96 well plate. […] After 24 hours of drug treatment, caspase 3/7 activity was measured using Apo-ONE Homogeneous Caspase-3/7 Assay (Promega), following the manufacturer's recommendations.

T1 sequence (P08581 25-1390): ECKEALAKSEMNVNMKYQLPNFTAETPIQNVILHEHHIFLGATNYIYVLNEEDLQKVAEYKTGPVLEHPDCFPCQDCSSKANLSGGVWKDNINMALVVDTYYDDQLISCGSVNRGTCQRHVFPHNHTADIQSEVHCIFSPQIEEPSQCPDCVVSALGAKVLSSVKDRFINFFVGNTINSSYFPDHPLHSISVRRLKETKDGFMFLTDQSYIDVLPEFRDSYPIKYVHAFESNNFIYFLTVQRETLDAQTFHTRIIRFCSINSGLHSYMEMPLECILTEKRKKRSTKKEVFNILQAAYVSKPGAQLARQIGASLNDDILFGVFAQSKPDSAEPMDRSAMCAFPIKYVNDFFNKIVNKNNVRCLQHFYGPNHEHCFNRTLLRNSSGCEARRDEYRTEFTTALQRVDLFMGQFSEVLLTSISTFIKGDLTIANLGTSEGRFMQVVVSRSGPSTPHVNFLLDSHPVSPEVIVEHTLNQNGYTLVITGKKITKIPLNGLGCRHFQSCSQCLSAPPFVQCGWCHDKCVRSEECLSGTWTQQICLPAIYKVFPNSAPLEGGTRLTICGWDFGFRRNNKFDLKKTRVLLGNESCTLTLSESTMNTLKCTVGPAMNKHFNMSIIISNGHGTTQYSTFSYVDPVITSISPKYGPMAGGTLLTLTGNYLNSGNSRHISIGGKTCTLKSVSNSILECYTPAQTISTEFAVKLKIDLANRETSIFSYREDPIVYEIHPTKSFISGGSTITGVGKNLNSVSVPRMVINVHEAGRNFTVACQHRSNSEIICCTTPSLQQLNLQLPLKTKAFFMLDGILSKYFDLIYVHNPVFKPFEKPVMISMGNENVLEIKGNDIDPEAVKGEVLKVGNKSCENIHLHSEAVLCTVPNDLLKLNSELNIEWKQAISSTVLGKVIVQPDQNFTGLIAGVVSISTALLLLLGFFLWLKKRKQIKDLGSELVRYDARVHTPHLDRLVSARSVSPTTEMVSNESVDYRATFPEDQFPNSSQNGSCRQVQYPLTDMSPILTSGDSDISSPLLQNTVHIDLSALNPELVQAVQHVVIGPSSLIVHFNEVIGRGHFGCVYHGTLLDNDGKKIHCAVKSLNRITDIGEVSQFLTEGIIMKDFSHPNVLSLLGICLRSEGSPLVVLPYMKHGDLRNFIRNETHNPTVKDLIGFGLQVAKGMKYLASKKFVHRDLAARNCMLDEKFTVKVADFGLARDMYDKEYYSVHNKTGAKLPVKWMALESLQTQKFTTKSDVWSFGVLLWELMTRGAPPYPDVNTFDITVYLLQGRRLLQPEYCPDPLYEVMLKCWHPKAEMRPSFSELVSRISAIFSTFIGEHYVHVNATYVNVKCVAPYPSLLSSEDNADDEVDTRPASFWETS

For the compound `COc1cc2ncnc(Nc3cccc(Cl)c3)c2cc1OC` [AG1478], at c-Met receptor [1], the “c-Met receptor phosphorylation (Y1230/Y1234/Y1235)” value was “concomitant decrease”. In addition, in the data set with U87H cells [2], the “cell viability, combination with cisplatin” value is recorded as “similar”. In the data set on U87H cells [2] (WST-1), the “cell viability, single agent” value is reported as “only decreased cell viability at very high inhibitor doses”. Further, the “sensitisation of xenografts to cisplatin” value in data set [3] is “sensitized to cisplatin”.
For the compound `Cc1[nH]c(/C=C2\C(=O)Nc3ccc(S(=O)(=O)N(C)c4cccc(Cl)c4)cc32)c(C)c1C(=O)N1CCN(C)CC1` [SU11274], the “c-Met receptor phosphorylation (Y1230/Y1234/Y1235)” value at c-Met receptor [1] is “dose dependent decrease”. In addition, on EGFRvIII receptor, the “EGFRvIII receptor tyrosine phosphorylation on multiple sites” value is on record as “does not affect”. Besides, the “specificity for the kinase activity of the c-Met receptor” value at c-Met receptor [4] was “exquisitely specific”. Also, in the data set with U87H cells [2], the “cytotoxicity of combination treatment” value was “significantly enhanced cytotoxicity” and the “cell viability, combination with cisplatin” value is “dramatic decrease in cell viability”. Besides, in the data set with U87H cells [2] (WST-1), the “cell viability, combined dosing with AG1478” value was “synergistic decrease in cell viability” and the “cell viability, single agent” value is recorded as “only decreased cell viability at very high inhibitor doses”. Besides, in the data set on U87H cells [5] (10 μM SU11274 plus 5 μM AG1478, 24 h after 24-h serum starvation, P<0.01), the “apoptosis (caspase 3/7 cleavage), combination treatment” value is listed as “significantly enhanced apoptosis”. In the data set on U87H cells [5] (SU11274 with constant 5 μM AG1478), the “cell death, combined dosing with AG1478” value was “increase in cell death”.
As to `N.N.[Cl][Pt][Cl]` [cisplatin], the “cell viability, cisplatin only” value in the data set with U87H cells [2] (10 μg/ml cisplatin over 72 h after 24-h serum starvation, WST-1) was “resistant”.
In the case of `Cc1[nH]c(/C=C2\C(=O)Nc3ccc(S(=O)(=O)Cc4c(Cl)cccc4Cl)cc32)c(C)c1C(=O)N1CCC[C@@H]1CN1CCCC1` [PHA665752], in the data set on U87H cells [2], the “cytotoxicity of combination treatment” value was “significantly enhanced cytotoxicity”. For the same compound, in the data set on U87H cells [2] (WST-1), the “cell viability, combined dosing with AG1478” value is recorded as “synergistically sensitize”.
